Here are results for four compounds from patent publication US6107069A, “Recombinant kynurenine-3-hydroxylase enzyme and process for its preparation” (priority 1996, dated 2000).

One series deals with T1, rat kyn-3-OHase (Rattus norvegicus, UniProt O88867).
T1 construct: encodes a deduced protein of 478 amino acid residues; expressed in transfected cells; host or cells: Xenopus laevis oocytes injected with cRNA of the cloned rat kidney cDNA (homogenate)
Nature of the series: Inhibition of rat kyn-3-OHase expressed in Xenopus laevis oocytes. The format is biochemical. The following applies: homogenates of oocytes injected with the clone, 50 μM L-kyn.

For the next series, the system named is kyn-3-OHase. As to conditions: systemic administration; cited from earlier work.
The test system of the next series is rats. The following applies: administration to rats; cited from earlier work.
Series [1] relates to excitatory amino acid receptor. As to conditions: sites normally activated by glutamate and aspartate; cited from earlier work.
Series [2] has as its system brain. As to conditions: peripherally formed; cited from earlier work.
In another series the test system is glycine modulatory site. As to conditions: cited from earlier work.
The test system of series [3] is brain. The following applies: cited from earlier work.

One may read the IC50 as the concentration needed to halve the response being measured.

Each structure is given as a SMILES string.

T1 sequence (O88867 whole entry): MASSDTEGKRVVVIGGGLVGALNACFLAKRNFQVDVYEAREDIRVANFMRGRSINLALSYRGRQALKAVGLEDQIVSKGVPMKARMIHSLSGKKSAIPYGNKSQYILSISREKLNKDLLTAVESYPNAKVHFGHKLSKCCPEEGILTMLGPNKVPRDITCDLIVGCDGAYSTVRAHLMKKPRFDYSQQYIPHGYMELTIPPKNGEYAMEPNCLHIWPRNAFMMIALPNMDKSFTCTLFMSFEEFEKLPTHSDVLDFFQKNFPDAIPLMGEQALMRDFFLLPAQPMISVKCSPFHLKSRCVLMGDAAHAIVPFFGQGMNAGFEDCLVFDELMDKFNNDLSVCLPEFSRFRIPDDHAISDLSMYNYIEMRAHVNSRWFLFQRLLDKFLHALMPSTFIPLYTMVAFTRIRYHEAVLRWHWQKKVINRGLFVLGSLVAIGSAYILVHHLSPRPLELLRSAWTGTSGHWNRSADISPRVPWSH
Excerpt for rat kyn-3-OHase: Kyn-3-OHase activity was quantified by the conversion of L-kyn to 3-OH-Kyn.

For `NC(CC(=O)c1ccc(Cl)c(Cl)c1)C(=O)O` (racemic) [FCE 28833A, (R,S)-3,4-dichlorobenzoylalanine], on rat kyn-3-OHase, the IC50 stood at 290 nM. Moreover, in the series with kyn-3-OHase, the “endogenous KYNA levels in rat brain tissue” value was “dose-dependent elevation” and the “endogenous kynurenine levels in rat brain tissue” value is “dose-dependent elevation”.

For `O=C(O)c1cccnc1C(=O)O` [QUIN, quinolinic acid], the convulsions result with rats is “caused convulsions”. Besides, in series [1], the “activity at excitatory amino acid receptor sites” value is listed as “agonist”.

For `Nc1c(O)cccc1C(=O)O` [3-hydroxyanthranilic acid], the “entry into the brain” value in the series with brain [2] is given as “enters the brain very poorly”.

Consider `O=C(O)c1cc(=O)c2ccccc2[nH]1` [KYNA, kynurenic acid], for which, in the series on glycine modulatory site, the “affinity to the glycine modulatory site” value is “particularly high affinity” and the “excitatory amino acid receptor antagonism” value is recorded as “effective excitatory amino acid receptor antagonist”. In the series on brain [3], the “properties when applied directly into the brain” value is “anticonvulsant and neuroprotective properties”.
